# Test results: US8722682B2, “Sulfated benzimidazolone derivatives having mixed serotonin receptor affinity” (Sprout Pharmaceuticals, Inc., priority 2006, dated 2014)
# How the values were obtained:
# 5-HT2A receptor = target: T1, 5-HT2A receptor (Homo sapiens, UniProt P28223); experiment: 5-HT2A receptor binding, [3H]-Ketanserin displacement; conditions: human recombinant CHO-K1 cells, [3H]-Ketanserin 0.5 nM
# T1 construct: expressed in transfected cells; host or cells: CHO-K1
# Description: (§1) Binding studies can be carried out to determine the affinity of the compounds for 5-HT1A and 5-HT2A receptors
# Human recombinant CHO-K1 cells can be used. Displacement experiments are performed by incubating the cells in 50 mM Tris-HCL, pH 7.7 in the presence of [^3H]-Ketanserin (0.5 nM) at 25° C. for 60 min. Non specific binding was determined in the presence of 1 μM Mianserin.
# The test compounds, along with the positive control compound ketanserin are tested over 10-log unit concentrations for their ability to compete for [^3H]-Ketanserin (Saucier C and Albert P R. J. Neurochem. 68:1998, 1997. Bonhaus D W et al., Br J Pharmacol. 115:622, 1995). The assays are terminated by rapid vacuum filtration over glass fiber filters. The radioactivity is counted on a β-counter, and the data are analyzed by a nonlinear, iterative, curve-fitting computer program. Where presented, IC50 values are determined by a non-linear, least squares regression analysis using Data Analysis Toolboxä (MDL Information Systems, San Leandro, Calif., USA). Where inhibition constants (Ki) are presented, the Ki values are calculated using the equation of Cheng and Prusoff (Cheng, Y., Prusoff, W. H., Biochem. Pharmacol. 22:3099-3108, 1973) using the observed IC50 of the tested compound, the concentration of radioligand employed in the assay, and the historical values for the Ki of the ligand).
# 5-HT1A receptor = target: T2, 5-HT1A receptor (Homo sapiens, UniProt P08908); experiment: 5-HT1A receptor binding, [3H]-8-OH-DPAT displacement; conditions: human recombinant CHO-K1 cells, [3H]-8-OH-DPAT 1.5 nM
# T2 construct: expressed in transfected cells; host or cells: CHO-K1
# T2 sequence (P08908 1-422): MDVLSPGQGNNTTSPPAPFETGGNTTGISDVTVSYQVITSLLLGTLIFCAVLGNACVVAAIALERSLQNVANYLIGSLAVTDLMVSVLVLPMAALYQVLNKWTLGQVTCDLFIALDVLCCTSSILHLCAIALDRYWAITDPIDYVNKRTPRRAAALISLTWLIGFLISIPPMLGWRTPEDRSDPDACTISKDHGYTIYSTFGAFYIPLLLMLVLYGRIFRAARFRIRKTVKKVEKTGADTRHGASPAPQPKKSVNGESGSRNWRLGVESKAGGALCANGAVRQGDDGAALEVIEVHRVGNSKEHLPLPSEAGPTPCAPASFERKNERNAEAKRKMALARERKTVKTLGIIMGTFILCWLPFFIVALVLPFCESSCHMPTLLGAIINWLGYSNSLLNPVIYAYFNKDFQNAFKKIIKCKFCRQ
# Description: as §1
# Human recombinant CHO-K1 cells are used. Displacement experiments can be performed by incubating the cells in 50 mM Tris-HCL, pH 7.4, 0.1% ascorbic acid, 0.5 mM EDTA, 10 mM MgSo4 and in the presence of [^3H]-8-OH-DPAT (1.5 nM) at 27° C. for 60 min. Non specific binding was determined in the presence of 10 μM mertergoline.
# The test compounds dissolved in DMSO, along with the positive control compound metergoline are tested over 10-log unit concentrations for their ability to compete for [^3H]8-OH-DPAT binding (May J A, et al., J Pharmacol Exp Ther. 306(1):301, 2003. Martin G R and Humphrey P P A Neuropharmacol. 33:261, 1994). […] The radioactivity is counted on a β-counter, and the data are analyzed by a nonlinear, iterative, curve-fitting computer program.
# Where presented, IC50 values are determined by a non-linear, least squares regression analysis using Data Analysis Toolboxä (MDL Information Systems, San Leandro, Calif., USA). Where inhibition constants (Ki) are presented, the Ki values are calculated using the equation of Cheng and Prusoff (Cheng, Y., Prusoff, W. H., Biochem. Pharmacol. 22:3099-3108, 1973) using the observed IC50 of the tested compound, the concentration of radioligand employed in the assay, and the historical values for the Ki of the ligand).
# T1 sequence (P28223 whole entry): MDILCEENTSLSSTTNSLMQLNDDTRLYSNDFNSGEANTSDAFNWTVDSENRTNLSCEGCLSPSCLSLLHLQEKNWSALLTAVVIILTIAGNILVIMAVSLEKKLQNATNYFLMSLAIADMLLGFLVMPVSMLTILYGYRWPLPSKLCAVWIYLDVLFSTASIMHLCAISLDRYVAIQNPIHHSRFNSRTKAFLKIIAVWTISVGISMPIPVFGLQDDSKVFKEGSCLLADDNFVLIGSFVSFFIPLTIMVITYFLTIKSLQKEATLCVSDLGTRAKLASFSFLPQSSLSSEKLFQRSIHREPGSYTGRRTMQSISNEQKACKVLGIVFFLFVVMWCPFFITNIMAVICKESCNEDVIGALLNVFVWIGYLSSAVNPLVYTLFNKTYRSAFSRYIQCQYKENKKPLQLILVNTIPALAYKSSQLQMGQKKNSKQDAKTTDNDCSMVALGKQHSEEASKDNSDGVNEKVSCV
structure (smiles),measurement,setting,value
"O=c1[nH]c2ccc(OS(=O)(=O)O)cc2n1CCN1CCN(c2cccc(C(F)(F)F)c2)CC1 [I(b), {2-oxo-3-{2-[4-(3-trifluoromethyl-phenyl)-piperazin-1-yl]-ethyl}-2,3-dihydro-1H-benzimidazol-5-yl}mono sulfuric acid ester]",Ki,5-HT2A receptor,207 nM
same,Ki,5-HT1A receptor,808 nM
